Consider 19 substances from patent publication US10239957B2, “Peptide containing conjugates for dual molecular delivery of oligonucleotides” (Merck Sharp & Dohme Corp., priority 2013, dated 2019).

The subject of assay [1] is CTNNB1. The experiment in a line: In vivo evaluation in mice: liver mRNA knockdown measurement. The protocol:
Female CD-1 mice (Charles River) were injected in accordance with either a sequential dosing paradigm or a co-dosing paradigm. In the sequential dosing paradigm, the targeted siRNA (SCE) is dosed at t=0 and the targeted peptide is separately dosed up to 2 hr before the SCE (−2 hr) or up to 24 hr after the SCE (+24 hr). In the co-dosing paradigm, the SCE and peptides are co-formulated and dosed together in the same formulation as a single injection at t=0. The mice were dosed either by intravenous (i.v.) or subcutaneous (s.c.) injection of SCE and peptide. For the i.v. doses, the compounds were injected into the tail vein of the mice. For the s.c. doses, the compounds were injected in the subcutaneous space on the back of the mouse between the shoulder blades. At the indicated harvest times (measured from t=0 when the siRNA was dosed, regardless of when the peptide was dosed), the animals were sacrificed and 3 mm liver punches were collected, preserved in RNAlater (Ambion), and stored at 4° C. Separate 5 mm liver punches were collected, placed in 96-well plates, frozen on dry ice, and stored at −80° C. until use.
The 3 mm liver punches were removed from RNAlater and homogenized in Trizol (Invitrogen) using a bead mill tissue lyser (Qiagen); disruption was performed for two 5-minute cycles at 30 Hz. RNA extraction was performed using 1-bromo-2-chloropropane (Acros Organics) and total RNA was isolated from the aqueous phase using the MagMax RNA isolation method (Ambion). […] TaqMan qPCR analysis was performed with an ABI 7900 Real-Time PCR System using TaqMan Fast Advanced Master Mix (Applied Biosystems). All TaqMan probes and primers for CTNNB1 and PPIB (housekeeping gene) were purchased from Applied Biosystems as pre-validated gene expression assays. Results are calculated by the comparative Ct method, where the difference between the CTNNB1 Ct value and the PPIB Ct value (ΔCt) is calculated and then further normalized relative to the PBS control by taking a second difference (ΔΔCt), as described previously (1).

For assay [2], the system named is CTNNB1. The assay is described as follows: In vitro DMD assay: mRNA silencing enhancement by peptide conjugates after siRNA-IV treatment. It counts as cell-based. The conditions noted are these: primary mouse hepatocytes, siRNA-IV 125 nM baseline. The gist of the method:
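RT-qPCR read-out, PPIB-normalized (dddCt), gave silencing enhancement versus 125 nM siRNA-IV alone and untreated cells. Beforehand, cultured primary mouse hepatocytes received siRNA-IV for 1 h, then graded peptide-conjugate doses for ~16 h, followed by washout and a further 24 h incubation.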

[3] abbreviates: Table 8 (linkage comparison), TGN-L-siRNA-II 0.25 mg/kg, peptide 1 mg/kg.
Setting [4] is: Table 8 (linkage comparison), TGN-L-siRNA-II 0.25 mg/kg, peptide 3 mg/kg.
[5] abbreviates: mice, TGN-L-siRNA-III 0.25 mg/kg IV, peptide 2 mg/kg IV 15 min after siRNA.
The mark [6] stands for this setting: mice, TGN-L-siRNA-III 0.25 mg/kg IV, peptide 10 mg/kg IV 15 min after siRNA.
The mark [7] stands for this setting: mice, TGN-L-siRNA-III 0.5 mg/kg IV, peptide 5 mg/kg IV 15 min after siRNA.
[8] abbreviates: mice, TGN-L-siRNA-III 0.25 mg/kg IV, peptide 5 mg/kg IV 15 min after siRNA.

Where no end group is shown, it is not given here. [ ]: non-standard residue; d: D form. TGN = not defined here

With “TGN-CDM-SEQ ID NO: 1801 (D): TGN-CDM peptide; peptide glfgeieelieeglenlidwgng; C8 made from the same all(D) sequence (G[dL][dF]G[dE][dI][dE][dE][dL][dI][dE][dE]G[dL][dE][dN][dL][dI][dD][dW]G[dN]G; also: TGN-CDM conjugate; listed as Homo sapiens)”, the “In vivo mRNA knockdown” value in the assay with CTNNB1 [1] (setting [3]) is recorded as 23.0%; with CTNNB1 [1] (setting [4]) it was 24.9%.
In the same order, the values of “TGN-ECL-SEQ ID NO: 1802 (D): TGN-ECL-peptide; peptide gffgaiwefihsil (G[dF][dF]G[dA][dI][dW][dE][dF][dI][dH][dS][dI][dL]; also: TGN-ECL conjugate; listed as Homo sapiens)” are 28.7% and 64.0%.
“TGN-S-S- SEQ ID NO: 1738 (D) (G[dL][dF]G[dE][dI][dE][dE][dL][dI][dE][dE]G[dL][dE][dN][dL][dI][dD][dW]G[dN]G[dL][dA][dE][dL][dA][dE][dA][dL][dE][dA][dL][dA][dA]GG[dS][dC]; not fully specified (residue 40); also: TGN attached via disulfide; listed as Homo sapiens)”: the “In vivo mRNA knockdown” value with CTNNB1 [1] (mice, TGN-L-siRNA-II 0.25 mg/kg IV, peptide 1 mg/kg IV 15 min after siRNA) is recorded as 25%; with CTNNB1 [1] (mice, TGN-L-siRNA-II 0.25 mg/kg IV, peptide 3 mg/kg IV 15 min after siRNA) it was 44%.
On to “TGN-S-S-SEQ ID NO: 935 (L) (C(TGN)GFFGEIAELIWEGLKNLIDWWNG; reading uncertain; also: TGN linked to Cys via disulfide, TGN not defined; listed as Homo sapiens)”, for which the “In vivo mRNA knockdown” value in the assay with CTNNB1 [1] (setting [5]) stood at 17%; with CTNNB1 [1] (setting [6]) it was 23%.
In the case of “TGN-S-S-SEQ ID NO: 1248 (L) (C(TGN)FLEELWELLEHLL; reading uncertain; also: TGN disulfide conjugate at Cys1; listed as Homo sapiens)”, in the assay on CTNNB1 [1] (setting [7]), the “In vivo mRNA knockdown” value amounted to 24%.
With “TGN-S-S-SEQ ID NO: 1403 (L) (C(TGN)GLLEEIEELLEEGLENLIDWWNS; reading uncertain; also: TGN disulfide conjugate at Cys1; listed as Homo sapiens)”, the “In vivo mRNA knockdown” value in the assay with CTNNB1 [1] (setting [5]) was determined as 22%; with CTNNB1 [1] (setting [6]), 24%.
For the substance “TGN-S-S-SEQ ID NO: 1489 (D) ([dC][dL][dE][dL][dW][dL][dE][dH][dL][dF][dL][dE][dL][dE]; not fully specified (residue 1); also: TGN attached via disulfide; listed as Homo sapiens)”, the “In vivo mRNA knockdown” value was 37% in the assay on CTNNB1 [1] (mice, TGN-L-siRNA-III 0.5 mg/kg IV, peptide 2 mg/kg IV 15 min after siRNA); 26% in the assay on CTNNB1 [1] (mice, TGN-L-siRNA-III 0.5 mg/kg IV, peptide 10 mg/kg IV 15 min after siRNA); 34% in the assay on CTNNB1 [1] (mice, TGN-L-siRNA-III 0.5 mg/kg IV, peptide 25 mg/kg IV 15 min after siRNA).
Turning to “TGN-S-S-SEQ ID NO: 1516 (L) (C(TGN)GLFAEIEELLEEGLENLIDWWNG; reading uncertain; also: TGN disulfide conjugate at Cys1; listed as Homo sapiens)”, the “In vivo mRNA knockdown” value in the assay on CTNNB1 [1] (setting [8]) turned out to be 14%.
As to “TGN-S-S-SEQ ID NO: 1643 (D) ([dC]G[dF][dF]G[dE][dI][dA][dE][dL][dI][dE][dE]G[dL][dK][dN][dL][dI][dD][dW]G[dN]G; not fully specified (residue 1); also: TGN attached via disulfide; listed as Homo sapiens)”, the “In vivo mRNA knockdown” value in the assay with CTNNB1 [1] (setting [6]) is given as 41%.
Consider “TGN-S-S-SEQ ID NO: 1716 (L) (C(TGN)GLFEELAGLLWHGLKNLIDWWNG; reading uncertain; also: TGN disulfide conjugate at Cys1; listed as Homo sapiens)”, for which, in the assay with CTNNB1 [1] (setting [7]), the “In vivo mRNA knockdown” value was 39%.
On the same count and under the same terms, for “TGN-S-S-SEQ ID NO: 1717(L): TGN-S-S-peptide; peptide CFLGALFHALSHLLENLIDWWNG (C(TGN)FLGALFHALSHLLENLIDWWNG; reading uncertain; also: TGN disulfide conjugate at Cys1; listed as Homo sapiens)” the value was 16%.
For “TGN-S-S-SEQ ID NO: 1719 (L) (C(TGN)GLFAEIEELIWEGLENLIDWWNQ; reading uncertain; also: TGN disulfide conjugate at Cys1; listed as Homo sapiens)”, the “In vivo mRNA knockdown” value with CTNNB1 [1] (setting [8]) was 25%.
As to “TGN-S-S-SEQ ID NO: 1725 (L) (C(TGN)SSAWWSYWPPVA; reading uncertain; also: TGN disulfide conjugate at Cys1; listed as Homo sapiens)”, the “In vivo mRNA knockdown” value in the assay on CTNNB1 [1] (setting [6]) is recorded as 19%.
Take “TGN-S-S-Seq-ID-58 (D) (CRRQRRKKRGYGYWGDILGEWGNEIFGEIAEFLG; not fully specified; TGN disulfide conjugate; D-amino acids; listed as Homo sapiens)”: the “In vitro dddCt (vs. baseline SCE dose)” value in the assay on CTNNB1 [2] (Targeted peptide dose 8 nM) is −0.05; in the assay with CTNNB1 [2] (Targeted peptide dose 40 nM), −0.03; in the assay with CTNNB1 [2] (Targeted peptide dose 200 nM), −0.25; in the assay on CTNNB1 [2] (Targeted peptide dose 1000 nM) it was −0.26; with CTNNB1 [2] (Targeted peptide dose 5000 nM) it was −0.3.
Turning to “TGN-S-S-Seq-ID-61 (D) (CRRQRRKKRGYGYWWDILGKWGNEIFGEIAEFLG; not fully specified; TGN disulfide conjugate; D-amino acids; listed as Homo sapiens)”, the “In vitro dddCt (vs. baseline SCE dose)” value is 0.13 with CTNNB1 [2] (Targeted peptide dose 8 nM); 0.08 in the assay on CTNNB1 [2] (Targeted peptide dose 40 nM); 0.01 with CTNNB1 [2] (Targeted peptide dose 200 nM); 0 in the assay on CTNNB1 [2] (Targeted peptide dose 1000 nM); −0.55 with CTNNB1 [2] (Targeted peptide dose 5000 nM).
In the same order, the values of “TGN-S-S-Seq-ID-65 (D) ([dC][dI][dF]G[dA][dI][dA]G[dF][dI][dK][dN][dI][dW][dK]; not fully specified (residue 1); also: disulfide-linked to TGN peptide via Cys; listed as Homo sapiens)” are 0, −0.73, −1.48, −1.88 and −2.68.
Consider “TGN-S-S-Seq-ID-111 (D) ([dC][dF][dF]G[dA][dI][dW][dE][dF][dI][dK][dS][dI][dL][dE]G[dL][dI][dD][dW][dW][dY]G[dY]G[dH][dK][dK][dH][dH][dQ][dH][dR]; not fully specified (residue 1); also: TGN conjugated via disulfide at Cys1; listed as Homo sapiens)”, for which the “In vitro dddCt (vs. baseline SCE dose)” value in the assay on CTNNB1 [2] (Targeted peptide dose 5000 nM) is −1.4.
In the case of “TGN-S-S-Seq-ID-115 (D) ([dC][dL][dH][dL][dL][dH][dH][dL][dL][dH][dH][dL][dH][dH][dL][dL][dH][dH][dL][dL][dH][dL][dL][dH][dH][dL][dL][dH][dH][dL]GGG[dR][dK][dK][dR][dR][dQ][dR][dR][dR][dP][dP][dQ]; not fully specified (residue 1); also: TGN conjugated via disulfide at Cys1; listed as Homo sapiens)”, the “In vitro dddCt (vs. baseline SCE dose)” value in the assay on CTNNB1 [2] (Targeted peptide dose 5000 nM) is −0.17.
As to “TGN-S-SEQ ID NO: 1517 (L) (CGLFGEIEELIEEGLECITLIDWWNG; cysteine pairing not given here; also: TGN-S conjugate; listed as Homo sapiens)”, the “In vitro dddCt (vs. baseline SCE dose)” value in the assay on CTNNB1 [2] (Targeted peptide dose 25 nM) came out at 0.54; in the assay on CTNNB1 [2] (Targeted peptide dose 125 nM), 0.49; with CTNNB1 [2] (Targeted peptide dose 625 nM), 0.48; in the assay with CTNNB1 [2] (Targeted peptide dose 3125 nM), 0.33.
